Measurements from US20080234183A1, “Cell Penetrating Peptides” (priority 2002, published 2008).
Where no end group is shown, it is not given here.

Columns and labels:
pancreatic islets = experiment: Insulin release from isolated pancreatic islets; format: cell-based, rat
Description: Effects of the peptides on insulin secretion were assessed in pancreatic islets from male Wistar rats weighing 200-250 g. Islets were isolated aseptically by colagenase digestion, and then cultured overnight at 37° C. in RPMI 1640 culture medium supplemented with 10% heat-inactivated fetal calf serum. After culturing, analysis of insulin secretion was performed by incubation at 37° C. for 1 h in batches of 3 islets, each in 300 μl of Krebs-Ringer bicarbonate buffer with 10 mM Hepes and 2 mg/ml bovine serum albumin, pH 7.4. The incubation medium contained either 3.3 or 16.7 mM glucose, with or without peptide. In one experimental series, batches of 5×10^5 Rin m5F cells were incubated under similar conditions, except that glucose was omitted from the medium. Aliquots of the incubation medium were taken for radioimmunoassay of Insulin. Insulin secretion is expressed as IU insulin/islet/h and IU insulin/5×10^5 cells/h, respectively. Statistical significance was evaluated with the Student's t-test with p<0.05 regarded as significant

[1] = In vivo effect of GOP on insulin release and blood glucose level; set-up: species or system Wistar rats
Description: Healthy male Wistar rats, weighing approximately 250 g, were fasted over-night. After an initial blood sample obtained by incision of the distal tail vein (0 min), GOP (M528, 100 nmol/kg; n=4) was injected intraperitoneally, followed by another i.p. injection of glucose (1 g/kg). Control rats (n=4) were injected with saline and glucose. Additional blood samples were taken from the tail vein after 10 and 30 min. Blood glucose levels were determined by a glucose oxidase method and plasma insulin levels by radioimmunoassay.

[2] = system: human Bowes melanoma cells; experiment: Cellular penetration of biotin-labelled peptide; format: cell-based
Description: The medium containing serum was exchanged for a serum-free medium and water solution of the peptide was added directly into the medium to reach the concentration of 10 μM. A negative control was always used, because living cells all the time have some biotin inside. To control cells pure water instead peptide solution were added, and further handled alike all other. The cells were incubated for 1 h at 37° C. or 4° C. in 5% CO2 enriched air. The cells were washed three times with PBS, fixed and permeabilised with methanol for 10 min at −20° C., washed again with PBS and Incubated for 1 h in a 5% (w/v) solution of fat-free milk in PBS in order to decrease non-specific binding. The peptides were visualised by staining with 0.1 μM streptavidin-FITC in the same solution for 1 hour at room temperature. The cell nuclei were visualised by staining with DNA with Hoechst 33258 (0.5 μg/ml) for 5 min, thereafter the coverslips were washed 3 times with PBS and mounted in 20% glycerol in PBS. The images were obtained by Zeiss Axioplan 2 microscope (Carl Zeiss Inc., Germany).

[3] = system: porcine left anterior descending coronary artery; experiment: Blood vessel contraction measurement; settings: 16 μM
Description: Dissected porcine hearts (260-390 g) were transported from local slaughterhouse to the laboratory in ice-cold Krebs-Henseleit solution (119 mM NaCl, 23.8 mM NaHCO3, 3 mM KCl, 1.14 mM NaH2PO4, 1.63 mM CaCl2, and 16.5 mM glucose). Left anterior descending coronary artery and great cardiac vein were isolated. Part of each blood vessel was used immediately after Isolation for contraction assays while part of it was kept frozen in liquid nitrogen for the membrane preparation. In some experiments blood vessels in which endothelium was mechanically removed were used. The same procedure was used also for the preparation of human umbilical blood vessels; umbilical cords were obtained from Obstetric Clinic of Ljubljana Clinical Center, Slovenia.
The measurements were performed as already described (20). Rings (5 mm wide) of blood vessels were cut and mounted into 10 ml tissue chamber filled with Krebs-Henseleit solution (37° C.; pH=7.4) which was oxygenated with the mixture of ^95% O2 and 5% CO2. Initial tension of 50 mN was applied and after equilibration 30 mM KCl was added to obtain stable Isometric contraction. The presence of endothelium was verified with substance P. After washing out of KCl and substance P and after the equilibration of the system was restored, test peptide was added into the tissue chamber and blood vessel contraction was recorded.

[4] = system: G-proteins from blood vessel membranes; experiment: Rate of GTPγS binding to blood vessel membranes; format: biochemical; settings: membranes from porcine left anterior descending coronary artery
Description: Frozen pieces of blood vessels were mechanically pulverized. Subsequently membranes were obtained according to the protocol of McKenzie (McKenzie, F. R. Signal Transduction (Milliqan, E., Ed.), Oxford University Press, Oxford, N.Y., Tokyo. (1992)) with minor modifications. Until used, they were kept frozen in the concentration of 1-2 mg protein/ml as determined by the method of Lowry (Lowry, O. H., Rosenbrough, N.Y., Farr, A. L. & Randall, R. J. J. Biol. Chem. 193, 265-275 (1951)). The same procedure (with the exception of pulverization of tissue) was used also for the preparation of membranes from Sf9 cells which overexpressed the G-proteins of different types; protein concentrations of these membrane preparations were between 0.2 and 0.4 mg/ml.
The binding to G-proteins from blood vessel membranes was followed as described by McKenzie (McKenzie, F. R. Signal Transduction (Milligan, E., Ed.), Oxford University Press, Oxford, N.Y., Tokyo. (1992)). Briefly, the membranes (final protein concentration in the assay mixture was 0.05 mg/ml) were incubated for 3 min in the absence and presence of peptides in different concentrations with 0.5 nM [^35S]GTPγS at 13° C. […] The remaining radioactivity contained in the filters was determined in the LKB 1214 Rackbeta liquid scintillation counter. Blank values were determined by replacing the membrane preparations with buffer.

[5] = system: N2A mouse neuroblastoma cells; experiment: Cellular internalisation assay of fluorescein-labelled APP and PS peptides; format: cell-based; settings: 10 μM, 37°
Description: Mouse neuroblastoma cells, N2A, were cultivated in Dulbecco's minimal essential medium with Glutamax-I, supplemented with 10% (v/v) fetal bovine serum, penicillin (100 U/ml) and streptomycin (100 μg/ml).
The cells used for Internalisation were seeded out on round glass coverslips in 24well plates. One day post seeding, the cells were semi confluent, and the medium was changed to serum-free medium. The fluorescein-labelled peptides were added, with a final concentration of 10 μM. After 60 min of incubation at 37°, the cells were washed 3 times with 1 ml of Hepes-Krebbs-Ringer-(HKR) buffer and fixed with 3% paraformaldehyde solution in phosphate-buffered saline solution (PBS) for 10 minutes. The cells were then washed 3 times with 1 ml of HKR-buffer, and the coverslips were mounted and sealed for microscopy studies.
The cell type used for the internalisation assays with the fluorescein'tagged peptides was N2A mouse neuroblastoma cells. This cell-line is commonly used in association with Alzheimer's disease studies, and serves as a good model cell-line for these internalisation assays where peptides derived from proteins involved in Alzheimer's disease were examined. These Internalisation assays were performed at 37° C., therefore the internalisation by endocytosis cannot be excluded.

[6] = system: N2A mouse neuroblastoma cells; experiment: as above; format: cell-based
N2A cells [7] = format: cell-based, mouse
Bowes cells = experiment: Peptide uptake in attached Bowes cells, fluorescence in cell lysate; format: cell-based, human; settings: Fluoresceinyl peptide, 5 μM, 30 min, 37° C.
Description: Cells were detached with trypsin (Invitrogen, Sweden), dissolved in culture media and centrifuged (1000×g for 10 min at RT). The cells were resuspended, counted and aliqoted in HKR on Ice, 300 000 cells/tube. Abz-labelled peptide was incubated for 15 and 30 min together with the cells in suspension, on a shaking 37° C. water bath. To stop the uptake or outflow, trypsin solution was added for 3 min. The cells were spun down at 1000×g for 10 min at 4° C. The pellets were resuspended in HKR for fluorescence detection, or for the outflow samples, incubated again with peptide-free HKR. Fluorescence was read at 320/420 nm on a Spectramax Gemini XS (Molecular Devices, Calif.). The intracellular concentrations were calculated from a standard curve of Abz-labelled peptides. […] Additionally, a varianty of the same assay was applied: the cells were seeded in a 24well plate at a density of 100 000 cells/well, the day before. Cells are incubated at 5 μM peptide concentration for 30 min at 37° C. Trypsin treated, washed and lysed in hydrochloric acid. The fluorescence was measured as described for the suspension assay.
Human melanoma cells Bowes, were cultured in MEM using standard cell culturing techniques, and seeded at density of 100 000 cells/well in 24 well-plates the day before experiments were conducted.

LoVo cells = experiment: Internalisation of biotinylated selCPPs, fluorescence microscopy; format: cell-based, human
Description: One aspect of the present invention thus comprises a method for screening the cellular uptake of a broad variety of CPPs in vitro, wherein cells are grown on glass cover slips to suitable, such as 50%, density, whereupon the media is changed to serum free and a blotinylated peptide solution is added. The cells are then incubated, washed, fixed and the peptides are visualised by staining with, e.g. avidin-FITC, or streptavidin-TRITC, and the cell nuclei are counterstained, e.g. with Hoechst. Images are preferably obtained with a fluorescence microscope and evaluated.
FIG. 5. Example of inactivated selCPP. Internalisation of YTA-2 (A) compared to YTA-2 ps (B) In LoVo cells, both biotynilated peptides detected by TRITC-avidin at 37° C.
The cells were grown on round glass cover slips (12 mm, GTF, Sweden) in a 24-well plate to approximately 50% confluence. The media was changed to serum free and the biotinylated peptide solutions were added. The cells were incubated for 30 min at 37 or 4° C. The cells were washed twice with PBS, fixed with 4% paraformaldehyde solution 15 min at room temperature (dark) and then permeabilised in 30 mM HEPES buffer containing 0.5% w/v Triton X-100, 3 min on Ice. Sites for unspecific binding were blocked In PBS containing 3% (w/v) bovine serum albumin, overnight at 4° C. The peptides were visualised by staining with avidin-FrTC or streptavidin-TRITC (Molecular Probes, the Netherlands). The cell nuclei were stained with Hoechst 33258 (0.5 μg/ml) for 5 min, after which the cover slips were washed 3 times with PBS and mounted in 25% glycerol in PBS. The images were obtained with a Leica DM IRE2 fluorescence microscope (Leica Microsystem., Sweden) and processed in PhotoShop 6.0 software (Adobe Systems Inc., CA) (See e.g. FIG. 38-40).

Porcine coronary artery = experiment: Effect of M630 on porcine coronary artery
Description: CGRP receptor loop iC4, sequence 391-405 ([…]) was synthesised and tested at blood vessels as described for the ATLAR loop previously.
Porcine coronary artery was contracted by using KCl. After relaxation of the artery by washing, 50 μM M630 was applied. Contraction started after approximately 10 min and reached maximum in 15 to 20 min after application. […] The effect was reproducible and always very clearly observed. The lag-period of 10 min could be the time needed for the penetration of M630 into the cells.

N2a cells [8] = experiment: Cellular internalisation of M630 conjugated to fluorescein; format: cell-based; settings: 5 μM, 1 h, 37° C.
Description: FIG. 42. Cellular internalisation of M630 conjugated to fluorescein in N2a cells, visualised by confocal microscope. The cells were incubated for 1 h at 37° C. with a final peptide concentration of 5 μM.

YTA-2ps = system: T1, YTA-2ps
T1 sequence: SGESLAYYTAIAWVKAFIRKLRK

IVIAKLKA amide (IVIAKLKA-NH2) [GOP]
stimulation of insulin release (pancreatic islets; 10 μM GOP, 3.3 mM glucose, p<0.001): 5 fold | Insulin release at 16.7 mM glucose (pancreatic islets; 10 μM peptide): stim+ | Insulin release at 3.3 mM glucose (pancreatic islets; 100 μM peptide): no | Insulin release at 16.7 mM glucose (pancreatic islets; 100 μM peptide): stim++ | stimulation of insulin release (pancreatic islets; 1 and 10 FM GOP, 16.7 mM glucose): 4 fold | plasma insulin ([1]; 100 nmol/kg i.p. + glucose 1 g/kg, after 10 min, vs control rats p<0.05): increased significantly | blood glucose levels ([1]; 100 nmol/kg i.p. + glucose 1 g/kg, at 10 min, vs control rats p<0.02): significantly lower | insulin and glucose levels vs control rats ([1]; after 30 min): no differences

IVIAKLKANLMCKTCRLAK-amide (IVIAKLKANLMCKTCRLAK-NH2; cysteine pairing not given here) [Peptide M569]
cellular penetration ([2]; 37° C. and 4° C.): temperature independent penetration | cellular localisation ([2]; Bowes cells, 37° C.): both cytosolic and plasma membrane localisation

KGKFQLYLKLKFKFL [Scrambled M511]
blood vessel contraction [3]: did not cause any contraction | rate of binding of GTPγS [4]: not active

KKKQYTSIHHGVVEVD [APP (725-740)]
cellular localisation [5]: mostly to the cytosol | cellular internalisation ([5]; 60 min): increased fluorescence compared to the background | internalisation at 4° C. [6]: not internalised

MANLGYWLLALFVTMWTDVGLCKKRPKP [mouse PrPC(1-28)]
cargo delivery (N2A cells [7]): ability to carry a cargo avidin into cells | cell-penetrating activity (N2A cells [7]): is indeed a CPP | cellular localization (N2A cells [7]): perinuclear localization

SGESLAY-YTAIAWVKAFIRKLRK (SGESLAYYTAIAWVKAFIRKLRK) [YTA-2ps]
% of added fluorescence in cell lysate (Bowes cells): 3.5% | Comment (staining/localisation) (LoVo cells): bind the plasma

VQAILRRNWNQYKIQ [Peptide M630]
effect on the contracted arteries (Porcine coronary artery): no effect | reversal of contraction by washing (Porcine coronary artery; 50 μM): Washing did not reverse the contraction | time to start of contraction (Porcine coronary artery; 50 μM): approximately 10 min | cell membrane penetration (N2a cells [8]): penetrates cell membranes by a non-endocytotic mechanism

matrix metallo proteinase-2 (MMP-2)
cleavage of the peptide by the protease, checked by mass spectrometry (YTA-2ps): The correct cleavage of YTA-2 by MMP2 has also be confirmed by mass spectrometry (data not shown)
